Laboratory results as given in ChEMBL document CHEMBL5104211, “Design and synthesis of bile acid derivatives and their activity against colon cancer” (RSC Med Chem, 2022).
Calls of active or inactive are those of the source. The rule behind the calls is not given here.

Columns and labels:
HT-29 = test: Anticancer activity against human HT-29 cells assessed as inhibition of cell proliferation by MTT assay; assay type: functional, cell-based
HCT-116 [1] = test: Induction of apoptosis in human HCT-116 cells assessed as early apoptotic cells at 30 micromol/L incubated for 48 hrs by annexin V-FITC and propidium iodide staining based flow cytometry analysis (reference value: 2.69%); assay type: functional; conditions: dose 30 µmol/L, at 30 µM
HCT-116 [2] = test: Anticancer activity against human HCT-116 cells assessed as inhibition of cell proliferation by MTT assay; assay type: functional, cell-based
SW480 = test: Anticancer activity against human SW480 cells assessed as inhibition of cell proliferation by MTT assay; assay type: functional, cell-based
Huh-7 = test: Anticancer activity against human Huh-7 cells assessed as inhibition of cell proliferation by MTT assay; assay type: functional, cell-based
RKO = test: Anticancer activity against human RKO cells assessed as inhibition of cell proliferation by MTT assay; assay type: functional, cell-based
A549 = test: Anticancer activity against human A549 cells assessed as inhibition of cell proliferation by MTT assay; assay type: functional, cell-based
HCT-116 [3] = test: Induction of apoptosis in human HCT-116 cells assessed as necrotic cells at 30 micromol/L incubated for 48 hrs by annexin V-FITC and propidium iodide staining based flow cytometry analysis (reference value: 0.88%); assay type: functional; conditions: dose 30 µmol/L, at 30 µM
HCT-116 [4] = test: Induction of apoptosis in human HCT-116 cells assessed as late apoptotic cells at 30 micromol/L incubated for 48 hrs by annexin V-FITC and propidium iodide staining based flow cytometry analysis (reference value: 7.13%); assay type: functional; conditions: dose 30 µmol/L, at 30 µM
SK-HEP1 = test: Anticancer activity against human SK-HEP1 cells assessed as inhibition of cell proliferation by MTT assay; assay type: functional, cell-based
MGC-803 = test: Anticancer activity against human MGC-803 cells assessed as inhibition of cell proliferation by MTT assay; assay type: functional, cell-based
HCT-116 [5] = test: Induction of apoptosis in human HCT-116 cells assessed as viable cells at 30 micromol/L incubated for 48 hrs by annexin V-FITC and propidium iodide staining based flow cytometry analysis (reference value: 89.29%); assay type: functional; conditions: HCT-116, 48 h, dose 30 µmol/L, read-out: Activity
HCT-116 [6] = test: Anticancer activity against human HCT-116 cells assessed as inhibition of cell proliferation at 5 to 50 micromol/L incubated for 24 hrs by MTT assay; assay type: functional, cell-based; conditions: dose 5-50 µmol/L, DDE = dose-dependent effect
HCT-116 [7] = test: Anticancer activity in human HCT-116 cells assessed as downregulation of phosphorylated STAT3 level at 30 micromol/L incubated for 48 hrs by Western blot analysis; assay type: functional, cell-based; conditions: dose 30.0 µmol/L
HCT-116 [8] = test: Induction of cell cycle arrest in human HCT-116 cells assessed as accumulation G2/M phase at 25 micromol/L and measured after 48 hrs by propidium iodide staining based flow cytometry analysis (Rvb= 11%); assay type: functional; conditions: dose 25 µmol/L, at 25 µM
LoVo = test: Anticancer activity against human LoVo cells assessed as inhibition of cell proliferation by MTT assay; assay type: functional, cell-based
[9] = Cytotoxicity against human WI-38 cells assessed as inhibition of cell proliferation by MTT assay; assay type: toxicity, cell-based
HCT-116 [10] = test: Anticancer activity against human HCT-116 cells assessed as decrease in size of colonies at 25 micromol/L and measured after 48 hrs by crystal violet dye based colony formation assay; assay type: functional, cell-based; conditions: dose 25.0 µmol/L
HCT-116 [11] = test: Anticancer activity against human HCT-116 cells assessed as inhibition of cell proliferation at 20 to 40 micromol/L incubated for 24 to 72 hrs by MTT assay; assay type: functional, cell-based; conditions: dose 20-40 µmol/L, time 24-72 hrs, TDE = time-dependent effect
HCT-116 [12] = test: Induction of mitochondrial membrane potential loss in human HCT-116 cells and measured after 48 hrs by TRME staining based flow cytometric analysis (reference value: 97.52%); assay type: functional
HCT-116 [13] = test: Induction of ROS generation in human HCT-116 cells assessed as increase in intracellular ROS level incubated for 48 hrs by DCFH-DA staining based flow cytometric analysis (Rvb=73.65%); assay type: functional
HCT-116 [14] = test: Inhibition of cell migration in human HCT-116 cells at 20 micromol/L and measured after 24 hrs by crystal violet staining based transwell assay; assay type: functional; conditions: HCT-116, 24 h, dose 20 µmol/L
HCT-116 [15] = test: […] activity in human HCT-116 cells assessed as downregulation of Bcl-2 level at 30 micromol/L incubated for 48 hrs by Western blot analysis; assay type: functional, cell-based; conditions: dose 30.0 µmol/L
HCT-116 [16] = test: Induction of apoptosis in human HCT-116 cells assessed as apoptotic body formation at 30 micromol/L incubated for 48 hrs by Giemsa staining based fluorescence microscopy; assay type: functional, cell-based; conditions: dose 30.0 µmol/L
HCT-116 [17] = test: Induction of apoptosis in human HCT-116 cells assessed as retraction of the nucleus at 30 micromol/L incubated for 48 hrs by Giemsa staining based fluorescence microscopy; assay type: functional, cell-based; conditions: dose 30.0 µmol/L
HCT-116 [18] = test: Induction of apoptosis in human HCT-116 cells assessed as unclear cell rupture edges at 30 micromol/L incubated for 48 hrs by Giemsa staining based fluorescence microscopy; assay type: functional; conditions: dose 30.0 µmol/L
HCT-116 [19] = test: Induction of apoptosis in human HCT-116 cells assessed as retraction of the cytoplasm at 30 micromol/L incubated for 48 hrs by Giemsa staining based fluorescence microscopy; assay type: functional, cell-based; conditions: dose 30.0 µmol/L
HCT-116 [20] = test: Anticancer activity against human HCT-116 cells assessed as decrease in number of colonies at 25 micromol/L and measured after 48 hrs by crystal violet dye based colony formation assay; assay type: functional, cell-based; conditions: dose 25.0 µmol/L
HCT-116 [21] = test: Induction of apoptosis in human HCT-116 cells assessed as contraction of cell volume at 30 micromol/L incubated for 48 hrs by Giemsa staining based fluorescence microscopy; assay type: functional; conditions: dose 30.0 µmol/L
HCT-116 [22] = test: […] activity in human HCT-116 cells assessed as upregulation of cleaved caspase-3 level at 30 micromol/L incubated for 48 hrs by Western blot analysis; assay type: functional, cell-based; conditions: dose 30.0 µmol/L
RAW264.7 [23] = test: Anti-inflammatory activity against mouse RAW264.7 cells assessed as downregulation of LPS-induced TNF-alpha level at 10 to 25 micromol/L incubated for 24 hrs in presence of LPS by ELISA; assay type: functional, cell-based; conditions: dose 10-25 µmol/L
HCT-116 [24] = test: Inhibition of cell invasion in human HCT-116 cells at 20 micromol/L and measured after 24 hrs by crystal violet staining based transwell assay; assay type: functional; conditions: HCT-116, 24 h, dose 20 µmol/L
HCT-116 [25] = test: Induction of apoptosis in human HCT-116 cells assessed as increase in number of apoptotic cells at 30 micromol/L incubated for 48 hrs by DAPI staining based fluorescence microscopy; assay type: functional, cell-based; conditions: dose 30.0 µmol/L
RAW264.7 [26] = test: Anti-inflammatory activity against mouse RAW264.7 cells assessed as inhibition of LPS-induced NO production incubated for 24 hrs in presence of LPS by Griess reagent-based assay; assay type: functional, cell-based; conditions: RAW264.7, 24 h

SMILES	IC50 (HT-29)	Activity (HCT-116 [1])	IC50 (HCT-116 [2])	IC50 (SW480)	IC50 (Huh-7)	IC50 (RKO)	IC50 (A549)	Activity (HCT-116 [3])	Activity (HCT-116 [4])	IC50 (SK-HEP1)	IC50 (MGC-803)	viability at 30 µM (HCT-116 [5])	inhibition (HCT-116 [6])	Activity (HCT-116 [7])	Activity (HCT-116 [8])	IC50 (LoVo)	IC50 [9]	Activity (HCT-116 [10])	inhibition (HCT-116 [11])	Activity (HCT-116 [12])	other results
O=c1[nH]cc(F)c(=O)[nH]1 [FLUOROURACIL]	17.5 µM	2.13%	32.3 µM	21.9 µM	1.06 µM	12.7 µM	109 µM	0.59%	69.38%	12.5 µM	6.06 µM	27.9%									
COC(=O)c1ccc(COC(=O)CC[C@@H](C)[C@H]2CC[C@H]3[C@@H]4[C@H](O)C[C@@H]5C[C@H](O)CC[C@]5(C)[C@H]4CC[C@]23C)cc1	29.2 µM	2.12%	28.9 µM	36.1 µM	74.8 µM	44.4 µM	121 µM	0.89%	62.13%	49.9 µM	31.6 µM	34.9%	Dde	Active	63.98%	28.3 µM	> 500 µM	Active	Tde	79.08%	Activity (HCT-116 [13]): 85.75%; inhibition at 20 µM (HCT-116 [14]): 30%; Activity (HCT-116 [15]): Active; Activity (HCT-116 [16]): Active; Activity (HCT-116 [17]): Active; Activity (HCT-116 [18]): Active; Activity (HCT-116 [19]): Active; Activity (HCT-116 [20]): Active; Activity (HCT-116 [21]): Active; Activity (HCT-116 [22]): Active
C[C@H](CCC(=O)NCc1ccccc1O)[C@H]1CC[C@H]2[C@@H]3[C@H](O)C[C@@H]4C[C@H](O)CC[C@]4(C)[C@H]3C[C@H](O)[C@]12C	32.7 µM		36.3 µM	35.9 µM	63.7 µM	48.5 µM	40.5 µM			25.4 µM	42.3 µM					51.1 µM	> 200 µM				
C[C@H](CCC(=O)OCc1cccc(O)c1)[C@H]1CC[C@H]2[C@@H]3CC[C@@H]4C[C@H](O)CC[C@]4(C)[C@H]3CC[C@]12C	173 µM		142 µM	183 µM	185 µM	150 µM	> 200 µM			125 µM	> 200 µM					158 µM	> 200 µM				
C[C@H](CCC(=O)OCc1cccc(O)c1)[C@H]1CC[C@H]2[C@@H]3[C@H](O)C[C@@H]4C[C@H](O)CC[C@]4(C)[C@H]3CC[C@]12C	33.6 µM		42.3 µM	42.8 µM	124 µM	128 µM	69.4 µM			99 µM	49 µM					40.9 µM	> 200 µM				
COC(=O)c1ccc(COC(=O)CC[C@@H](C)[C@H]2CC[C@H]3[C@@H]4[C@H](O)C[C@@H]5C[C@H](O)CC[C@]5(C)[C@H]4C[C@H](O)[C@]23C)cc1	27.2 µM	1.33%	25 µM	31.3 µM	52.1 µM	41.2 µM	51.1 µM	1.19%	74.4%	41.6 µM	28.5 µM	23.1%	Dde	Active	89.39%	28.4 µM	> 500 µM	Active	Tde	71.17%	Activity (RAW264.7 [23]): Active; Activity (HCT-116 [13]): 91.33%; inhibition at 20 µM (HCT-116 [14]): 80%; Activity (HCT-116 [15]): Active; Activity (HCT-116 [16]): Active; Activity (HCT-116 [17]): Active; Activity (HCT-116 [18]): Active; inhibition at 20 µM (HCT-116 [24]): 80%; Activity (HCT-116 [25]): Active; Activity (HCT-116 [19]): Active; Activity (HCT-116 [20]): Active; IC50 (RAW264.7 [26]): 20.6 µM; Activity (HCT-116 [21]): Active; Activity (HCT-116 [22]): Active
